Our source for the IC50 values is US7932251B2, “6-phenyl-1H-imidazo[4,5-c]pyridine-4-carbonitrile derivatives” (priority 2007, dated 2011).

This experiment has as its target recombinant human Cathepsin S (Homo sapiens, UniProt P25774). In words: Cathepsin S assay: inhibition of recombinant human cathepsin S, fluorogenic substrate Z-Val-Val-Arg-AMC. Format: biochemical. How it is done: Cathepsin S Assay Procedure
To a 384 well microtitre plate is added 10 μl of a 100 μM solution of test compound in assay buffer (110 mM sodium acetate pH5.5, 5 mM EDTA, 5 mM dithiothreitol) with 10% dimethylsulfoxide (DMSO), plus 20 μl of 250 μM solution of the substrate
Z-Val-Val-Arg-AMC (7-amido-coumarine derivative of the tripeptide N-benzyloxycarbonyl-Val-Val-Arg-OH) in assay buffer and 45 μl of assay buffer. 25 μl of a 2 mg/l solution of activated recombinant human cathepsin S, in assay buffer, is then added to the well, yielding a final inhibitor concentration of 10 μM. Enzyme activity is determined by measuring the fluorescence of the liberated aminomethylcoumarin at […] using 390 nm excitation, at 20 minutes. Percentage enzyme activity is calculated by comparison of this activity to that of a solution containing no inhibitor.

As a reminder, the IC50 is the concentration that inhibits the measured activity by half.

The structures appear in SMILES notation.

Chain of recombinant human Cathepsin S (P25774 115-331): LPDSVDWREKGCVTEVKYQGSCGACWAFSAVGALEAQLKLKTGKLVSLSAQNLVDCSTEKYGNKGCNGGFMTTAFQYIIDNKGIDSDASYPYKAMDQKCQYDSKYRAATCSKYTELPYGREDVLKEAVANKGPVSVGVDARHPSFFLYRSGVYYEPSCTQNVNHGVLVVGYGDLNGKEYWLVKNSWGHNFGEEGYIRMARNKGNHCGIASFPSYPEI

Take `CNC(=O)C1CCN(CCCOc2ccc(-c3cc4c(ncn4C)c(C#N)n3)cc2C(F)(F)F)CC1` [Example 5a, 1-Methyl-6-(4-{3-[4-(N-methylaminocarbonyl)-piperidin-1-yl]-propoxy}-3-(trifluoromethyl)-phenyl)-1H-imidazo[4,5-c]pyridine-4-carbonitrile]: the IC50 was less than 0.1 µM. Consider `CN1CCC2(CC1)NC(=O)N(CCOc1ccc(-c3cc4c(ncn4C)c(C#N)n3)cc1C(F)(F)F)C2=O` [Example 11, 1-Methyl-6-{4-[2-(8-methyl-2,4-dioxo-1,3,8-triaza-spiro[4.5]dec-3-yl)-ethoxy]-3-(trifluoromethyl)-phenyl}-1H-imidazo[4,5-c]pyridine-4-carbonitrile], for which the IC50 is less than 0.1 µM. The same measure for `Cn1cnc2c(C#N)nc(-c3ccc(OCCCN4CCCC4)c(C(F)(F)F)c3)cc21` [Example 2c, 1-Methyl-6-[4-(3-pyrrolidin-1-ylpropoxy)-3-(trifluoromethyl)-phenyl]-1H-imidazo[4,5-c]pyridine-4-carbonitrile]: less than 0.1 µM; for `CCN1CCN(CCCOc2ccc(-c3cc4[nH]cnc4c(C#N)n3)cc2C(F)(F)F)CC1` [Example 20f]: less than 0.1 µM. With `CN(C)CCCOc1ccc(-c2cc3c(ncn3C)c(C#N)n2)cc1C(F)(F)F` [Example 2a, 6-[4-(3-Dimethylaminopropoxy)-3-(trifluoromethyl)-phenyl]-1-methyl-1H-imidazo[4,5-g]pyridine-4-carbonitrile] the figure was less than 0.1 µM; with `CCc1nccn1CCCOc1ccc(-c2cc3c(ncn3C)c(C#N)n2)cc1C(F)(F)F` [Example 7b, 6-{4-[3-(2-Ethyl-imidazol-1-yl)-propoxy]-3-(trifluoromethyl)-phenyl}-1-methyl-1H-imidazo[4,5-c]pyridine-4-carbonitrile], less than 0.1 µM; with `Cn1cnc2c(C#N)nc(-c3ccc(OCc4ccccn4)c(C(F)(F)F)c3)cc21` [Example 13c, 1-Methyl-6-[4-(pyridin-2-yl-methoxy)-3-(trifluoromethyl)-phenyl]-1H-imidazo[4,5-c]pyridine-4-carbonitrile], less than 0.1 µM.

As for `CCN1CCN(CCCOc2ccc(-c3cc4c(ncn4C)c(C#N)n3)cc2C(F)(F)F)CC1` [Example 4f, 6-{4-[3-(4-Ethylpiperazin-1-yl)-prooxy]-3-(trifluoromethyl)-phenyl}-1-methyl-1H-imidazo[4,5-c]pyridine-4-carbonitrile], the IC50 is less than 0.1 µM. On to `CN1CCN(CCCOc2ccc(-c3cc4c(ncn4C)c(C#N)n3)cc2C(F)(F)F)CC1(C)C` [Example 4a, 1-Methyl-6-{3-(trifluoromethyl)-4-[3-(3,3,4-trimethylpiperazin-1-yl)-propoxy]-phenyl}-1H-imidazo[4,5-c]pyridine-4-carbonitrile], for which the IC50 was less than 0.1 µM. The same measure for `Cn1cnc2c(C#N)nc(-c3ccc(OCCN4C(=O)NC5(CCNCC5)C4=O)c(C(F)(F)F)c3)cc21` [Example 12, 6-(4-[2-(2,4-Dioxo-1,3,8-triaza-spiro[4.5]dec-3-yl)-ethoxy]-3-(trifluoromethyl)-phenyl]-1-methyl-1H-imidazo[4,5-c]pyridine-4-carbonitrile]: less than 0.1 µM.

As for `Cn1cnc2c(C#N)nc(-c3ccc(OCCCO)c(C(F)(F)F)c3)cc21` [Example 1], the IC50 was less than 0.1 µM. On to `C[C@@H]1CN(CCOc2ccc(-c3cc4c(ncn4C)c(C#N)n3)cc2C(F)(F)F)C[C@H](C)N1` [Example 9d, 6-{4-[2-(cis-3,5-dimethyl-piperazin-1-yl)-ethoxy]3-(trifluoromethyl)-phenyl}-1-methyl-1H-imidazo[4,5-c]pyridine-4-carbonitrile], for which the IC50 is less than 0.1 µM. Turning to `Cn1cnc2c(C#N)nc(-c3ccc(OCCCN4CCNC(C)(C)C4)c(C(F)(F)F)c3)cc21` [Example 4b, 6-{4-[3-(3,3-Dimethylpiperazin-1-yl)-propoxy]-3-(trifluoromethyl)-phenyl}-1-methyl-1H-imidazo[4,5-c]pyridine-4-carbonitrile], the IC50 is less than 0.1 µM. The same measure for `CCN(CC)CCCOc1ccc(-c2cc3c(ncn3C)c(C#N)n2)cc1C(F)(F)F` [Example 2u, 6-[4-(3-N,N-Diethylamino-propoxy)-3-(trifluoromethyl)-phenyl]-1-methyl-1H-imidazo[4,5-d]pyridine-4-carbonitrile]: less than 0.1 µM; for `CN1CCN(CCCOc2ccc(-c3cc4c(ncn4C)c(C#N)n3)cc2C(F)(F)F)CC1` [Example 4e, 1-Methyl-6-{4-[3-(4-methylpiperazin-1-yl)-propoxy]-3-(trifluoromethyl)-phenyl}-1H-imidazo[4,5-c]pyridine-4-carbonitrile]: less than 0.1 µM.
